Active and inactive are the calls of the source. No cut-off for these calls is given here.
Molecular target: C-C chemokine receptor type 5 (Mus musculus, UniProt P51682)
Test: Binding affinity to mouse CCR5
Conditions: not given

Chain of C-C chemokine receptor type 5 (P51682 whole entry): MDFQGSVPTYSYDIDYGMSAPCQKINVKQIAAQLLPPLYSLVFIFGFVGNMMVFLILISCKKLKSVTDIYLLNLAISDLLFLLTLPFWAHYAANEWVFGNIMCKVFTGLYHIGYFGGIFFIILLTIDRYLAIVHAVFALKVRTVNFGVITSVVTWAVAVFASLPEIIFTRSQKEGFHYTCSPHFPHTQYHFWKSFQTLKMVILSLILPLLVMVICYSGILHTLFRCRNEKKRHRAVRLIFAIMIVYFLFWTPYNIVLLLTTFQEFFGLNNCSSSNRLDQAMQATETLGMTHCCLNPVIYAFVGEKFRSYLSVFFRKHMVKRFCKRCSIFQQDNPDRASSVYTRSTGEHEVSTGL

IC50	Compound
86 nM	CCC[C@H](O)[C@H](CNCc1ccc(C)cc1C)NC(=O)CNC(=O)c1cc(C(F)(F)F)ccc1NC(=O)NCC

Molecular target: C-C chemokine receptor type 2 (Mus musculus) (UniProt P51683)
Test: Antagonist activity at CCR2 in mouse monocytes assessed as inhibition of MCP1-induced calcium flux
Format: functional, cell-based
Conditions: not given

Chain of C-C chemokine receptor type 2 (Mus musculus) (P51683 whole entry, looked up): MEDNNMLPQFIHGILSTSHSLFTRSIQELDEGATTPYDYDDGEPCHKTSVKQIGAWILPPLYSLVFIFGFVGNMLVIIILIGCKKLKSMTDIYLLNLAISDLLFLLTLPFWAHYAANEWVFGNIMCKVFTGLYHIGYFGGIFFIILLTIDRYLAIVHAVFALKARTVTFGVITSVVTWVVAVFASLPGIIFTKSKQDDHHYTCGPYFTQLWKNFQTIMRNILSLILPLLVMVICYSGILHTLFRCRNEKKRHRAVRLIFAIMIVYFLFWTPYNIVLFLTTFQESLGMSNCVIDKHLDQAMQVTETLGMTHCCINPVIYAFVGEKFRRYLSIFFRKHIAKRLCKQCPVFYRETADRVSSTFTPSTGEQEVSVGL

Activity	Compound
Active	CCC[C@H](O)[C@H](CNCc1ccc(C)cc1C)NC(=O)CNC(=O)c1cc(C(F)(F)F)ccc1NC(=O)NCC

Molecular target: C-C chemokine receptor type 2 (Mus musculus) (UniProt P51683)
Test: Binding affinity to mouse CCR2
Conditions: not given

Compound	inhibition
Cc1ccc(CNC[C@H](NC(=O)CNC(=O)c2cccc(C(F)(F)F)c2)[C@@H](O)CC(C)C)c(C)c1	inactive
Cc1ccc(CNC[C@H](NC(=O)CNC(=O)c2cccc(C(F)(F)F)c2)[C@H](O)CC(C)C)c(C)c1	inactive
CCC[C@H](O)[C@H](CNCc1ccc(C)cc1C)NC(=O)CNC(=O)c1cccc(C(F)(F)F)c1	Active

The remaining lines, values ahead:

inhibition	Compound
inactive	CCC[C@@H](O)[C@H](CNCc1ccc(C)cc1C)NC(=O)CNC(=O)c1cc(C(F)(F)F)ccc1N
Active	CCC[C@H](O)[C@H](CNCc1ccc(C)cc1C)NC(=O)CNC(=O)c1cc(C(F)(F)F)ccc1NC(=O)OC(C)(C)C
Active	CCC[C@H](O)[C@H](CNCc1ccc(C)cc1C)NC(=O)CNC(=O)c1cc(C(F)(F)F)ccc1NC(=O)NCC
Active	CCC[C@H](O)[C@H](CNCc1ccc(C)cc1C)NC(=O)CNC(=O)c1cc(C(F)(F)F)ccc1N

Molecular target: T1, C-C chemokine receptor type 2 (Homo sapiens, UniProt P41597)
Test: Displacement of [125-I]MCP1 from CCR2 on human PBMC at 1 uM
Conditions: not given
Target sequence in this assay (P41597 whole entry, looked up): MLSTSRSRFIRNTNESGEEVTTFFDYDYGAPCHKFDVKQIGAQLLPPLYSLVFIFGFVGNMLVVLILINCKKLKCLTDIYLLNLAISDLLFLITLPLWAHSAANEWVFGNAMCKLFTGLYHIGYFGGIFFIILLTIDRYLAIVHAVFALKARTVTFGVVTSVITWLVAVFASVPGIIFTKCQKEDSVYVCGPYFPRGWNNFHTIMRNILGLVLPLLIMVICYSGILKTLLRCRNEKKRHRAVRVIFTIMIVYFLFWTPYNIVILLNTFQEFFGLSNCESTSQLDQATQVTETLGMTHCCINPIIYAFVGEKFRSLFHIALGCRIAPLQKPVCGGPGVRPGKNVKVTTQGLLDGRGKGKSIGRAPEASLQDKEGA

inhibition (INH)	Compound
6%	CCC[C@H](O)[C@H](CNCc1ccc(C)cc1C)NC(=O)Cc1nc2ccc(C(F)(F)F)cc2[nH]1

Molecular target: C-C chemokine receptor type 2 (Mus musculus) (UniProt P51683)
Test: Antagonist activity at CCR2 in mouse monocytes assessed as inhibition of MCP1-induced cAMP depression
Format: functional, cell-based
Conditions: not given

Activity	Compound
Active	CCC[C@H](O)[C@H](CNCc1ccc(C)cc1C)NC(=O)CNC(=O)c1cc(C(F)(F)F)ccc1NC(=O)NCC

Test system: not listed separately
Test: Clearance in mouse
Format: ADME, organism-based
Conditions: in vivo

clearance	Compound
85 mL/min/kg	CCC[C@H](O)[C@H](CNCc1ccc(C)cc1C)NC(=O)CNC(=O)c1cc(C(F)(F)F)ccc1NC(=O)NCC

Organism: Mus musculus
Test: Selectivity for mouse CCR2 over mouse CCR2
Conditions: not given

Selectivity ratio	Compound
> 1000	CCC[C@H](O)[C@H](CNCc1ccc(C)cc1C)NC(=O)CNC(=O)c1cc(C(F)(F)F)ccc1NC(=O)NCC

Test system: not listed separately
Test: Oral bioavailability in mouse
Format: ADME, organism-based
Conditions: in vivo

bioavailability	Compound
29%	CCC[C@H](O)[C@H](CNCc1ccc(C)cc1C)NC(=O)CNC(=O)c1cc(C(F)(F)F)ccc1NC(=O)NCC

Molecular target: T1, C-C chemokine receptor type 2
Test: Displacement of [125-I]MCP1 from CCR2 on human PBMC
Conditions: not given
Target sequence in this assay (P41597 whole entry): as the sequence (P41597 whole entry, looked up) above

Compound	IC50
CCC[C@H](O)[C@H](CNCc1ccc(C)cc1C)NC(=O)CC(=O)Nc1cc(Br)cc(C(F)(F)F)c1	710 nM
CCC[C@H](O)[C@H](CNCc1ccc(C)cc1C)N1CC[C@H](NC(=O)c2cc(N)cc(C(F)(F)F)c2)C1=O	1230 nM
Cc1ccc(CNC[C@H](NC(=O)CNC(=O)c2cc(C(F)(F)F)ccc2N)C(C)(C)O)c(C)c1	160 nM
CCC[C@H](O)[C@H](CNCc1ccc(C)cc1C)NC(=O)CC(=O)Nc1cc(C(F)(F)F)cc(C(F)(F)F)c1	690 nM
Cc1ccc(CNC[C@H](NC(=O)CNC(=O)c2cccc(C(F)(F)F)c2)[C@@H](O)c2ccccc2)c(C)c1	100 nM
CCC[C@H](O)[C@H](CNCc1ccc(C)cc1C)N1CC[C@H](NC(=O)c2cc(C(F)(F)F)ccc2NC(=O)OC(C)(C)C)C1=O	1040 nM
CCC[C@H](O)[C@H](CNCc1ccc(C)cc1C)N1CC[C@H](NC(=O)c2cc(C(F)(F)F)ccc2N)C1=O	900 nM
Cc1ccc(CNC[C@H](NC(=O)CNC(=O)c2cccc(C(F)(F)F)c2)[C@@H](O)C(C)C)c(C)c1	65 nM
CCC[C@H](O)[C@H](CNCc1ccc(C)cc1C)NC(=O)CC(=O)Nc1cc(C(=O)NCC)cc(C(F)(F)F)c1	158 nM
Cc1ccc(CNC[C@H](NC(=O)CNC(=O)c2cc(C(F)(F)F)ccc2N)C2(O)CCCC2)c(C)c1	87 nM
CCC[C@H](O)[C@H](CNCc1ccc(C)cc1C)NC(=O)CC(=O)Nc1cc(C(F)(F)F)ccc1NC(=O)OC(C)(C)C	240 nM
CC[C@@H](O)[C@H](CNCc1ccc(C)cc1C)NC(=O)CNC(=O)c1cccc(C(F)(F)F)c1	390 nM
CCCC[C@@H](O)[C@H](CNCc1ccc(C)cc1C)NC(=O)CNC(=O)c1cccc(C(F)(F)F)c1	180 nM
CCC[C@H](O)[C@H](CNCc1ccc(C)cc1C)N1CC[C@@H](NC(=O)c2cc(C(F)(F)F)ccc2NC(=O)OC(C)(C)C)C1=O	28000 nM
Cc1ccc(CNC[C@H](NC(=O)CNC(=O)c2cccc(C(F)(F)F)c2)[C@H](O)C(C)C)c(C)c1	100 nM
CCC[C@H](O)[C@H](CNCc1ccc(C)cc1C)NC(=O)CC(=O)Nc1cc(NC(=O)OC(C)(C)C)cc(C(F)(F)F)c1	340 nM
CCC[C@H](O)[C@H](CN(C)Cc1ccc(C)cc1C)NC(=O)CNC(=O)c1cc(C(F)(F)F)ccc1NC(=O)NC(C)C	440 nM
Cc1ccc(CNC[C@H](NC(=O)CNC(=O)c2cccc(C(F)(F)F)c2)[C@H](O)CC(C)(C)C)c(C)c1	600 nM
Cc1ccc(CNC[C@H](NC(=O)CNC(=O)c2cccc(C(F)(F)F)c2)[C@H](O)c2ccccc2)c(C)c1	> 1000 nM
CCC[C@H](O)[C@H](CN(Cc1ccc(C)cc1C)C(C)C)NC(=O)CNC(=O)c1cc(C(F)(F)F)ccc1NC(=O)NC(C)C	1700 nM
CCC[C@H](O)[C@H](CNCc1ccc(C)cc1C)NC(=O)CC(=O)Nc1cc(C(F)(F)F)ccc1OC	217 nM

The next lines start with the values.

IC50	Compound
64 nM	CC[C@H](O)[C@H](CNCc1ccc(C)cc1C)NC(=O)CNC(=O)c1cccc(C(F)(F)F)c1
49 nM	CCC[C@H](O)[C@H](CNCc1ccc(C)cc1C)NC(=O)Cc1nc2c(C(F)(F)F)cccc2[nH]1
43 nM	CCC[C@H](O)[C@H](CNCc1ccc(C)cc1C)NC(=O)CC(=O)Nc1cc(C(F)(F)F)ccc1N
41 nM	CCC(O)(CC)[C@H](CNCc1ccc(C)cc1C)NC(=O)CNC(=O)c1cc(C(F)(F)F)ccc1N
40 nM	CCC[C@H](O)[C@H](CNCc1ccc(C)cc1C)NC(=O)CC(=O)Nc1cc(NC(=O)NCC)cc(C(F)(F)F)c1
28 nM	CCC[C@H](O)[C@H](CNCc1ccc(C)cc1C)NC(=O)CC(=O)Nc1cccc(C(F)(F)F)c1
27 nM	CCCC(O)(CCC)[C@H](CNCc1ccc(C)cc1C)NC(=O)CNC(=O)c1cc(C(F)(F)F)ccc1N
24 nM	CCC[C@H](O)[C@H](CNCc1ccc(C)cc1C)NC(=O)CC(=O)Nc1cc(OC)cc(C(F)(F)F)c1
20 nM	CCCNc1cc(NC(=O)CC(=O)N[C@@H](CNCc2ccc(C)cc2C)[C@@H](O)CCC)cc(C(F)(F)F)c1
19 nM	Cc1ccc(CNC[C@H](NC(=O)CNC(=O)c2cccc(C(F)(F)F)c2)[C@@H](O)CC(C)(C)C)c(C)c1
17 nM	CC[C@H](O)[C@H](CNCc1ccc(C)cc1C)NC(=O)CNC(=O)c1cc(C(F)(F)F)ccc1N
11 nM	CCC[C@H](OC)[C@H](CNCc1ccc(C)cc1C)NC(=O)CNC(=O)c1cc(C(F)(F)F)ccc1N
10 nM	CCC[C@H](O)[C@H](CNCc1ccc(C)cc1C)NC(=O)CNc1n[nH]c2ccc(C(F)(F)F)cc12
9.3 nM	CCC[C@H](O)[C@H](CNCc1ccc(C)cc1C)NC(=O)CNC(=O)c1cc(C(F)(F)F)ccc1NCc1ccccc1
7.4 nM	CCC[C@H](O)[C@H](CNCc1ccc(C)cc1C)NC(=O)CNC(=O)c1cc(C(F)(F)F)ccc1NC(C)(C)C
7.1 nM	CCC[C@H](O)[C@H](CNCc1ccc(C)cc1C)NC(=O)CC(=O)Nc1cc(NC)cc(C(F)(F)F)c1
7 nM	CCC[C@@H](O)[C@H](CNCc1ccc(C)cc1C)NC(=O)CNC(=O)c1cc(C(F)(F)F)ccc1N
6.7 nM	CCC[C@H](O)[C@H](CNCc1ccc(C)cc1C)NC(=O)CNC(=O)c1cc(C(F)(F)F)ccc1NC(=O)NC
6.7 nM	CCC[C@H](O)[C@H](CNCc1ccc(C)cc1C)NC(=O)CNC(=O)c1cc(N)cc(C(F)(F)F)c1
5.8 nM	CCC[C@H](O)[C@H](CNCc1ccc(C)cc1C)NC(=O)CNC(=O)c1cc(C(F)(F)F)ccc1NC(=O)N1CCCC1
5.3 nM	CCC[C@H](O)[C@H](CNCc1ccc(C)cc1C)NC(=O)CNC(=O)c1cc(C(F)(F)F)ccc1NC(C)C
5 nM	CCCC[C@H](O)[C@H](CNCc1ccc(C)cc1C)NC(=O)CNC(=O)c1cccc(C(F)(F)F)c1
4.5 nM	CCC[C@H](O)[C@H](CNCc1ccc(C)cc1C)NC(=O)CC(=O)Nc1cc(NCC)cc(C(F)(F)F)c1
4 nM	CCC[C@H](O)[C@H](CNCc1ccc(C)cc1C)NC(=O)CNC(=O)c1cc(C(F)(F)F)ccc1NC(=O)OC(C)(C)C
3.8 nM	CCC[C@H](O)[C@H](CNCc1ccc(C)cc1C)NC(=O)CC(=O)Nc1cc(N)cc(C(F)(F)F)c1
3.8 nM	CCC[C@H](O)[C@H](CNCc1ccc(C)cc1C)NC(=O)CNC(=O)c1cc(C(F)(F)F)ccc1NC(=O)N1CCOCC1
3.6 nM	CCC[C@H](O)[C@H](CNCc1ccc(C)cc1C)NC(=O)CNC(=O)c1cc(C(F)(F)F)ccc1NC(=O)NCC
3.4 nM	CCC[C@H](O)[C@H](CNCc1ccc(C)cc1C)NC(=O)CNC(=O)c1cc(C(F)(F)F)ccc1N
2.5 nM	CCC[C@H](O)[C@H](CNCc1ccc(C)cc1C)NC(=O)CNC(=O)c1cc(C(F)(F)F)ccc1NC(=O)N1CCNCC1
2.1 nM	CCC[C@H](O)[C@H](CNCc1ccc(C)cc1C)NC(=O)CNC(=O)c1cc(C(F)(F)F)ccc1NC(=O)N1CCC1

Organism: Mus musculus
Test: Selectivity for mouse CCR2 over mouse CCR1
Conditions: not given

Selectivity ratio	Compound
> 1000	CCC[C@H](O)[C@H](CNCc1ccc(C)cc1C)NC(=O)CNC(=O)c1cc(C(F)(F)F)ccc1NC(=O)NCC
